Measured values as given in publication PMC7926352, “Synthesis, Characterization and In Vitro Evaluation of Novel 5-Ene-thiazolo[3,2-b][1,2,4]triazole-6(5H)-ones as Possible Anticancer Agents” (Molecules, 2021).
Like-named read-outs stand apart in the source and are kept apart here.

Columns and labels:
[1] = system: panel of approximately sixty human tumor cell lines; test: NCI-60 human tumor cell lines screen (SRB), full panel; format: cell-based; settings: 10 μM; for activity at 10 µM: Homo sapiens, 60 cell lines assay in one dose, 48 h; for Positive Cytostatic Effect / Positive Cytotoxic Effect: one dose; for Positive Cytostatic Effect: ratio of number of cell lines with percent growth from 0 to 50 to total number of cell lines; for Positive Cytotoxic Effect: ratio of number of cell lines with percent growth of <0 to total number of cell lines
Description: Compounds 2a, 2c–f, 2h–l, 3, 5e, 5f were selected for antitumor activity which was performed according to the standard protocols of National Cancer Institute (NCI, Bethesda, MD, USA) Developmental Therapeutic Program (DTP). At the prescreening stage, the compounds were evaluated for antitumor activity at the concentration of 10 µM against a panel of approximately sixty cancer cell lines representing different types of cancer including leukemia, melanoma, lung, colon, CNS, ovarian, renal, prostate and breast cancers.
Among them, three compounds (2d, 2h, 2i) presented excellent cytotoxic and four derivatives (2d, 2h, 2i, 2k) cytostatic properties in one or more cell lines when applied at a concentration of 10 µM. […] The outcomes were calculated and presented in the form of three response parameters (GI50, TGI and LC50) for each cell line via growth percentage inhibition curves. […]
The primary anticancer assay was performed on a panel of approximately sixty human tumor cell lines derived from nine neoplastic diseases (leukemia, melanoma, lung, colon, CNS, ovarian, renal, prostate, and breast cancers), in accordance with the protocol of the National Cancer Institute Drug Evaluation Branch (Bethesda, MD, USA). Tested compounds were added to the culture at a single concentration (10^−5 M) and the cultures were incubated for 48 h. End-point determinations were made with a protein-binding dye, sulforhodamine B (SRB). Results for each tested compound were reported as the percentage of the growth of the treated cells when compared to the untreated control cells. The percentage of the growth was evaluated spectrophotometrically versus controls not treated with test agents. […] Using absorbance measurements [time zero (Tz), control growth in the absence of drug (C), and test growth in the presence of the drug (Ti)], the percentage growth was calculated for each drug concentration. Percentage growth inhibition was calculated as:[(Ti − Tz)/[…]] × 100(1) for concentrations for which Ti ≥ Tz, [(Ti − Tz)/Tz] × 100 for concentrations for which Ti < Tz. Dose-response parameters (GI50, TGI) were calculated for each compound. Growth inhibition of 50% (GI50) was calculated from [(Ti − Tz)/(C − Tz)] × 100 = 50, which is the drug concentration resulting in a 50% lower net protein increase in the treated cells (measured by SRB staining) as compared to the net protein increase seen in the control cells. The drug concentration resulting in total growth inhibition (TGI) was calculated from Ti = Tz. Values were calculated for each of these parameters if the level of activity was reached; however, if the effect was not reached or was excessive, the value for that parameter was expressed as more or less than the maximum or minimum concentration tested. The lowest values were obtained with the most sensitive cell lines. Compounds having GI50 values ≤ 100 μM were declared to be active. The selectivity index (SI) calculated by dividing the full panel MG_MID (full-panel mean-graph midpoint) (μM) of the compounds 2h and 2i by their individual subpanel MG_MID of a cell line (μM) was considered as a measure of compounds’ selectivity. Ratios between 3 and 6 mean moderate selectivity, ratios greater than 6 indicate high selectivity toward the corresponding cell line, while compounds not meeting either of these criteria are rated nonselective.

[2] = system: phospholipase C-γ2 (PLC-γ2); design: method as in PMID 19303309; settings: at 15 µM; cited from earlier work
[3] = system: phospholipase C-γ2 (PLC-γ2); design: method as in PMID 19303309; settings: at 15 µM; cited from earlier work; remark: listed apart in the source

melting point [°C] | Structure (SMILES) | activity at 10 µM ([1]; read-out: Mean Growth, %) [%] | activity at 10 µM ([1]; read-out: Range of Growth, %) [%] | Positive Cytostatic Effect [1] | Positive Cytotoxic Effect [1] | PLC-γ2 inhibition, biochemical assay [2] | PLC-γ2 inhibition, calcium release cell-based assay [3]
– | CCN(CC)c1ccc(/C=c2\sc3ncnn3c2=O)cc1 [Compound 2e, (Z)-5-(4-(Diethylamino)benzylidene)thiazolo[3,2-b][1,2,4]triazol-6(5H)-one] | 102 | 61.9 to 134 | 0/58 | 0/58 | – | –
– | O=c1/c(=C/c2ccco2)sc2ncnn12 [Compound 2j, (Z)-5-(Furan-2-ylmethylene)thiazolo[3,2-b][1,2,4]triazol-6(5H)-one] | 106 | 82.4 to 136 | 0/56 | 0/56 | – | –
– | CC(=O)n1cc(/C=c2\sc3ncnn3c2=O)c2ccccc21 [Compound 2l, (Z)-5-((1-Acetyl-1H-indol-3-yl)methylene)thiazolo[3,2-b][1,2,4]triazol-6(5H)-one] | 105 | 66.9 to 141 | 0/59 | 0/59 | – | –
260 to 262 | Cc1cccc(NC(=O)COc2ccc(Cl)cc2/C=c2\sc3ncnn3c2=O)c1 [Compound 2g, (Z)-2-(4-Chloro-2-((6-oxothiazolo[3,2-b][1,2,4]triazol-5(6H)-ylidene)methyl)phenoxy)-N-(m-tolyl)acetamide] | – | – | – | – | – | –
– | COc1ccc(/C=c2\sc3ncnn3c2=O)cc1OC [Compound 2f, (Z)-5-(3,4-Dimethoxybenzylidene)thiazolo[3,2-b][1,2,4]triazol-6(5H)-one] | 108 | 86.7 to 262 | 0/57 | 0/57 | – | –
– | C=CCOc1ccccc1/C=c1\sc2ncnn2c1=O [Compound 2c, (Z)-5-(2-(Allyloxy)benzylidene)thiazolo[3,2-b][1,2,4]triazol-6(5H)-one] | 103 | 77.1 to 146 | 0/59 | 0/59 | – | –
– | O=C(O)CSc1nnc[nH]1 [Compound 3, 2-((1H-1,2,4-Triazol-3-yl)thio)acetic Acid] | 97.2 | 74.8 to 122 | 0/59 | 0/59 | – | –
– | CC(=O)Oc1ccc(/C=c2\sc3ncnn3c2=O)cc1 [Compound 2d, (Z)-4-((6-Oxothiazolo[3,2-b][1,2,4]triazol-5(6H)-ylidene)methyl)phenyl acetate] | 99.7 | -73.9 to 148 | 2/58 | 3/58 | – | –
– | O=c1/c(=C/c2ccccc2F)sc2ncnn12 [Compound 2a, (Z)-5-(2-Fluorobenzylidene)thiazolo[3,2-b][1,2,4]triazol-6(5H)-one] | 90 | 52.8 to 123 | 0/59 | 0/59 | – | –
– | O=c1c(=Cc2cccs2)sc2ncnn12 [Compound 2k, (Z)-5-(Thiophen-2-y-lmethylene)thiazolo[3,2-b][1,2,4]triazol-6(5H)-one] | 111 | 25.2 to 180 | 1/56 | 0/56 | – | –
189 to 192 | O=c1/c(=C/N2CCN(CCO)CC2)sc2ncnn12 [Compound 6c, (Z)-5-((4-(2-Hydroxyethyl)piperazin-1-yl)methylene)thiazolo[3,2-b][1,2,4]triazol-6(5H)-one] | – | – | – | – | – | –
– | O=c1/c(=C/Nc2ccc(Cl)cc2)sc2ncnn12 [Compound 5f, (E/Z)-5-(((4-Chlorophenyl)amino)methylene)thiazolo[3,2-b][1,2,4]triazol-6(5H)-one] | 93.6 | 54.4 to 112 | 0/59 | 0/59 | – | –
> 250 | O=c1/c(=C/N2CCc3ccccc32)sc2ncnn12 [Compound 6a, (Z)-5-(Indolin-1-ylmethylene)thiazolo[3,2-b][1,2,4]triazol-6(5H)-one] | – | – | – | – | – | –
204 to 206 | CCOC(=O)N1CCN(/C=c2\sc3ncnn3c2=O)CC1 [Compound 6d, Ethyl(Z)-4-((6-oxothiazolo[3,2-b][1,2,4]triazol-5(6H)-ylidene)methyl)piperazine-1-carboxylate] | – | – | – | – | – | –
190 to 192 | O=c1/c(=C/N2CCCCC2)sc2ncnn12 [Compound 6b, (Z)-5-(Piperidin-1-ylmethylene)thiazolo[3,2-b][1,2,4]triazol-6(5H)-one] | – | – | – | – | – | –
– | O=c1/c(=C/Nc2cccc(O)c2)sc2ncnn12 [Compound 5e, (E/Z)-5-(((3-Hydroxyphenyl)amino)methylene)thiazolo[3,2-b][1,2,4]triazol-6(5H)-one] | 101 | 80.3 to 138 | 0/59 | 0/59 | – | –
– | O=c1/c(=C/c2ccccc2[N+](=O)[O-])sc2nc(-c3ccc(F)cc3)nn12 [CCT-196700] | – | – | – | – | satisfactory activity parameters | satisfactory activity parameters
196 to 198 | COc1ccccc1/C=c1\sc2ncnn2c1=O [Compound 2b, (Z)-5-(2-Methoxybenzylidene)thiazolo[3,2-b][1,2,4]triazol-6(5H)-one] | – | – | – | – | – | –
